The test system of data set [1] is Vancomycin Intermediate Staphylococcus aureus (VISA) strain AR219. Conditions: cited from earlier work.
Data set [2] has as its system WT S. aureus (ATCC 25923). Conditions: cited from earlier work.
For data set [3], the system named is Vancomycin Intermediate Staphylococcus aureus (VISA) strain AR228. Conditions: cited from earlier work.
The subject of data set [4] is Sa #10, mupirocin-resistant MDRSA. Put plainly: Killing of drug-resistant bacteria Sa #10. Type of data set: cell-based, Staphylococcus aureus. The following applies: troponoids formulated as liposomes.
Data set [5] has as its system S. aureus. Conditions: 4×MIC, in vitro; cited from earlier work.
For data set [6] the following is noted: insoluble as defined herein (less than 10 mg/l); cited from earlier work.
Data set [7] concerns S. aureus. Conditions: cited from earlier work.
Data set [8] is described as follows: Solubility. It counts as physicochemical.
Data set [9] has as its system multidrug-resistant Staphylococcus. aureus (MDRSA), including methicillin-resistant S. aureus (MRSA) strains. The following applies: cited from earlier work.
The test system of data set [10] is mammal cell lines. The following applies: cited from earlier work.

Consider `Cc1onc(-c2ccccc2)c1C(=O)N[C@@H]1C(=O)N2[C@@H]1SC(C)(C)[C@@H]2C(=O)O` [OXA, Oxacillin], for which the “Antimicrobial susceptibility testing pattern (AST)” value is on record as “R” in [1], “S” in data set [2] and “R” in data set [3].

`COc1ccccc1C(=O)Oc1cccccc1=O` [compound 285]: the “killing of mupirocin-resistant MDRSA Sa #10” value in [4] is “can kill”. Also, the “incubation time to completely kill S. aureus” value in data set [5] was 5 to 8 h. Further, the “solubility in water (reportedly)” value in data set [6] is listed as “insoluble”. In addition, the MIC entry in data set [7] was “less than 5 μg/mL”. For the same molecule, the “solubility in DMSO” value in [8] (DMSO, Gentamicin at 10 mg/mL) is reported as “can be dissolved”. Further, the solubility in water entry in [8] (water) is listed as “not quite soluble”. Also, in data set [9], the “inhibition of MDRSA including MRSA strains” value is “can inhibit”. Also, in [10], the CC50 (commonly the concentration that lowers cell viability or growth by half) is greater than 100 µM.

Turning to Trimethoprim-sulfamethoxazole [SXT], the “Antimicrobial susceptibility testing pattern (AST)” value in data set [1], in data set [2] and in data set [3] was “S” in each case.

As to `C/C(=C\C(=O)OCCCCCCCCC(=O)O)C[C@@H]1OC[C@H](C[C@@H]2O[C@H]2[C@@H](C)[C@H](C)O)[C@@H](O)[C@H]1O` [MUP, Mupirocin], the “Antimicrobial susceptibility testing pattern (AST)” value in data set [3] is on record as “R”.

Regarding `CO[C@H]1/C=C/O[C@@]2(C)Oc3c(C)c(O)c4c(O)c(c(/C=N/N5CCN(C)CC5)c(O)c4c3C2=O)NC(=O)/C(C)=C\C=C\[C@H](C)[C@H](O)[C@@H](C)[C@@H](O)[C@@H](C)[C@H](OC(C)=O)[C@@H]1C` [RIF, Rifampin], the “Antimicrobial susceptibility testing pattern (AST)” value in [1] is given as “R”; in data set [2] it was “S”; in data set [3], “S”.

As for Gentamicin, the “Antimicrobial susceptibility testing pattern (AST)” value is on record as “R” in [1], “S” in [2] and “S” in data set [3].

As for Daptomyxin, in data set [2], the “Antimicrobial susceptibility testing pattern (AST)” value is recorded as “S”.

With Penicillin, the “Antimicrobial susceptibility testing pattern (AST)” value in [1] and in data set [3] was “R” in each case.

Consider `CC(=O)NC[C@H]1CN(c2ccc(N3CCOCC3)c(F)c2)C(=O)O1` [LZD, Linezolid], for which the “Antimicrobial susceptibility testing pattern (AST)” value in data set [1], in data set [2] and in data set [3] was “S” in each case.

Regarding `CO[C@@]1(NC(=O)Cc2cccs2)C(=O)N2C(C(=O)O)=C(COC(N)=O)CS[C@@H]21` [FOX, Cefoxitin], the “Antimicrobial susceptibility testing pattern (AST)” value in data set [1] is listed as “R”; in data set [2] it was “Neg”; in [3], “R”.

As for `CC[C@H]1OC(=O)[C@H](C)[C@@H](O[C@H]2C[C@@](C)(OC)[C@@H](O)[C@H](C)O2)[C@H](C)[C@@H](O[C@@H]2O[C@H](C)C[C@H](N(C)C)[C@H]2O)[C@](C)(O)C[C@@H](C)C(=O)[C@H](C)[C@@H](O)[C@]1(C)O` [ERY, Erthromycin], the “Antimicrobial susceptibility testing pattern (AST)” value is recorded as “R” in data set [1], “S” in [2] and “R” in data set [3].

In the case of `CN[C@H](CC(C)C)C(=O)N[C@H]1C(=O)N[C@@H](CC(N)=O)C(=O)N[C@H]2C(=O)N[C@H]3C(=O)N[C@H](C(=O)N[C@H](C(=O)O)c4cc(O)cc(O)c4-c4cc3ccc4O)[C@H](O)c3ccc(c(Cl)c3)Oc3cc2cc(c3O[C@@H]2O[C@H](CO)[C@@H](O)[C@H](O)[C@H]2O[C@H]2C[C@](C)(N)[C@H](O)[C@H](C)O2)Oc2ccc(cc2Cl)[C@H]1O` [VAN, Vancomycin], the figures for the “Antimicrobial susceptibility testing pattern (AST)” value in [1], in data set [2] and in [3] were “I”, “S” and “I”, respectively.

The values are drawn from patent US20220339136A1, “LIPOSOMAL TROPONOID COMPOUND FORMULATIONS” (United States Government As Represented By The Department …, priority 2019, published 2022).
